The source of these data is the Kinase Knowledgebase extract (Sharma et al. 2016).

Test [1] addresses EGFR (UniProt P00533).
Test [2] addresses EGFR (human) (UniProt P00533). The settings on record: mcf-7.
Test [3] concerns the target EGFR (human) (UniProt P00533). The settings on record: sw-620.
For test [4], the target named is EGFR (human) (UniProt P00533). As to conditions: a431.
Test [5] concerns the target EGFR (human) (UniProt P00533). The settings on record: a2780ddp.
The target in test [6] is EGFR (human) (UniProt P00533). As to conditions: a2780s.
In test [7] the target is EGFR (human) (UniProt P00533). The settings on record: mb435.
Test [8] has as its target EGFR (human) (UniProt P00533). As to conditions: lox.
Test [9] deals with EGFR (human) (UniProt P00533). The settings on record: skbr3.
For test [10], the target named is EGFR (human) (UniProt P00533).

Converted amounts (≈) assume the structure as drawn.

EGFR, sequence (P00533 whole entry, looked up): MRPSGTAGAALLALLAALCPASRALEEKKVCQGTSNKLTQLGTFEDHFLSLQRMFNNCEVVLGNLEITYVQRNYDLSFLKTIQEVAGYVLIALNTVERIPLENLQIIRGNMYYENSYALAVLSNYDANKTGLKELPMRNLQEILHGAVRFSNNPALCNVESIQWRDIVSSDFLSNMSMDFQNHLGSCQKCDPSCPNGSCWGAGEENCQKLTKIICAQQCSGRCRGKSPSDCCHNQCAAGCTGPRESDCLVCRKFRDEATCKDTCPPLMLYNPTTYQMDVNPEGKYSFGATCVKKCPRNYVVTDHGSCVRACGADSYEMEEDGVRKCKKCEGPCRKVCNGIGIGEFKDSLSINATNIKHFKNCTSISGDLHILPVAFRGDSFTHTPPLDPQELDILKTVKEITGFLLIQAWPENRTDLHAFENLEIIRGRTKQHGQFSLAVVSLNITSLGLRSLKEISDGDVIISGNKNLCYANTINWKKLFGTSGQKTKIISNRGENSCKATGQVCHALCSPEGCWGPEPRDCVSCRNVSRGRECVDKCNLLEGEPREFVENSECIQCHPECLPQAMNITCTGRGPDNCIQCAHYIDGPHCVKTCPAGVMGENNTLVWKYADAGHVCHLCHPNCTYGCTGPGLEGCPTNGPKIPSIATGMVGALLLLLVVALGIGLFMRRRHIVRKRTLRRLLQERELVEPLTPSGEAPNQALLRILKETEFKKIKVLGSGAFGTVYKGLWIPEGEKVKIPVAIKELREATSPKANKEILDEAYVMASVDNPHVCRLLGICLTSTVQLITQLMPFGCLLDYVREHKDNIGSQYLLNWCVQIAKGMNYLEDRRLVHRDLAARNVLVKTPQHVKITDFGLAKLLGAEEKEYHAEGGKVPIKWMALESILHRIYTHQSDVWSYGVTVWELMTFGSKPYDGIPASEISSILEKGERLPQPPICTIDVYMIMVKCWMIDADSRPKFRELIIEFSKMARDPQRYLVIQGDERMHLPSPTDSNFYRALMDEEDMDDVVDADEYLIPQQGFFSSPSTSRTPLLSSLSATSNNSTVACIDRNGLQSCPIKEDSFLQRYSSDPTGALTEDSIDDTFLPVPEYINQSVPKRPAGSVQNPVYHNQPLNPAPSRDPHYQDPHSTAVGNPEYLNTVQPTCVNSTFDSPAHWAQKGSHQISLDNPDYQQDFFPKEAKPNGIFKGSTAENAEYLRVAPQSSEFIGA
EGFR (human), sequence (P00533 whole entry, looked up): as above

In test [1], `O=C(/C=C/CBr)Nc1ccc2ncnc(Nc3cccc(Br)c3)c2c1` returned an IC50 of 0.01 nM.

On to `C=C(CN1CCOCC1)C(=O)Nc1ccc2ncnc(Nc3cccc(Br)c3)c2c1`, for which the IC50 in test [2] came out at 17 µg/mL (≈ 36.3 µM); in [3] it was 5.5 µg/mL (≈ 11.7 µM); in test [4], 0.6 µg/mL (≈ 1.28 µM); in test [5] it was 4 µg/mL (≈ 8.54 µM); in test [6], 0.8 µg/mL (≈ 1.71 µM); in test [1] it was 0.005 nM. In addition, the figures for the IC50 in test [7] and in test [8] were 4.5 µg/mL (≈ 9.61 µM) and 3.9 µg/mL (≈ 8.33 µM), respectively.

Take `CCN(CC)C/C=C/C(=O)Nc1ccc2ncnc(Nc3cccc(Br)c3)c2c1`: the IC50 in test [2] was found to be 59 µg/mL (≈ 130 µM); in test [3], 52 µg/mL (≈ 114 µM); in test [4] it was 0.01 µg/mL (≈ 0.022 µM); in [5], 43 µg/mL (≈ 94.6 µM); in test [6], 22 µg/mL (≈ 48.4 µM); in [1], 0.075 nM. In addition, the IC50 was 45 µg/mL (≈ 99 µM) in test [7], 46 µg/mL (≈ 101 µM) in test [8] and less than 0.01 µg/mL in [9].

For `CSSC(C)C(=O)Nc1ccc2ncnc(Nc3cccc(Br)c3)c2c1` (centres undefined), the IC50 in test [10] came to 0.84 nM.

Usually IC50 stands for the concentration at which inhibition is half-maximal. Low readings indicate greater potency, high ones weaker potency.
